Laboratory results reported in ChEMBL document CHEMBL4270640, “Discovery of new 2, 5-disubstituted 1,3-selenazoles as selective human carbonic anhydrase IX inhibitors with potent anti-tumor activity” (Eur J Med Chem, 2018).
Calls of active or inactive are those of the source. The rule behind the calls is not given here.

Experiments:
Carbonic anhydrase 9 = Carbonic anhydrase 9 (Homo sapiens, UniProt Q16790); assay: Inhibition of recombinant human carbonic anhydrase 9 incubated for 15 mins prior to testing by stopped flow CO2 hydration assay
MDA-MB-231 [1] = assay: Antiproliferative activity against human MDA-MB-231 cells assessed as cell viability at 100 uM after 48 hrs under hypoxic condition by MTT assay relative to control; format: functional; settings: MDA-MB-231, 48 h, read-out: Activity
MDA-MB-231 [2] = assay: Antiproliferative activity against human MDA-MB-231 cells assessed as cell killing at 30 to 100 uM after 48 hrs under normoxic condition by MTT assay; format: functional, cell-based
PC-3 [3] = assay: Antiproliferative activity against human PC3 cells assessed as cell viability at 10 uM after 48 hrs under normoxic condition by MTT assay relative to control; format: functional
PC-3 [4] = assay: Antiproliferative activity against human PC3 cells assessed as cell viability at 100 uM after 48 hrs under normoxic condition by MTT assay relative to control; format: functional; settings: PC-3, 48 h, read-out: Activity
MDA-MB-231 [5] = assay: Antiproliferative activity against human MDA-MB-231 cells assessed as cell viability at 1 uM after 48 hrs under normoxic condition by MTT assay relative to control; format: functional; settings: for viability at 1 µM: MDA-MB-231, 48 h, read-out: Activity
PC-3 [6] = assay: Antiproliferative activity against human PC3 cells at 10 uM after 48 hrs under hypoxic condition by MTT assay relative to control; format: functional
PC-3 [7] = assay: Antiproliferative activity against human PC3 cells assessed as cell viability at 1 uM after 48 hrs under normoxic condition by MTT assay relative to control; format: functional; settings: for viability at 1 µM: PC-3, 48 h, read-out: Activity
MDA-MB-231 [8] = assay: Antiproliferative activity against human MDA-MB-231 cells assessed as cell killing at 10 uM after 48 hrs under normoxic condition by MTT assay relative to control; format: functional
PC-3 [9] = assay: Antiproliferative activity against human PC3 cells assessed as cell viability at 30 uM after 48 hrs under normoxic condition by MTT assay relative to control; format: functional; settings: PC-3, 48 h, read-out: Activity
PC-3 [10] = assay: Antiproliferative activity against human PC3 cells assessed as cell viability at 1 uM after 48 hrs under hypoxic condition by MTT assay relative to control; format: functional; settings: PC-3, 48 h, read-out: Activity

NS(=O)(=O)c1ccc(-c2ncc(C[Te]c3ccccc3)[se]2)cc1
Ki (Carbonic anhydrase 9): 7.2 nM

N=C(N)SCc1cnc(-c2ccc(S(N)(=O)=O)cc2)[se]1
Ki (Carbonic anhydrase 9): 7 nM

NS(=O)(=O)c1ccc(-c2ncc(-c3ccc(Br)cc3)[se]2)cc1
Ki (Carbonic anhydrase 9): 0.87 nM

Cc1ccc([Se]Cc2cnc(-c3ccc(S(N)(=O)=O)cc3)[se]2)cc1
Ki (Carbonic anhydrase 9): 7.1 nM

NS(=O)(=O)c1ccc(-c2ncc(-c3ccc(F)cc3)[se]2)cc1
Ki (Carbonic anhydrase 9): 7.5 nM

COc1ccc([Se]Cc2cnc(-c3ccc(S(N)(=O)=O)cc3)[se]2)cc1
viability at 100 µM (MDA-MB-231 [1]): 46% | Activity (MDA-MB-231 [2]): Active | Activity (PC-3 [3]): inactive | Ki (Carbonic anhydrase 9): 0.55 nM | viability at 100 µM (PC-3 [4]): 11% | Activity (MDA-MB-231 [5]): inactive | Activity (PC-3 [6]): 77% | Activity (PC-3 [7]): inactive | Activity (MDA-MB-231 [8]): inactive | viability at 30 µM (PC-3 [9]): 59%

NS(=O)(=O)c1ccc(-c2ncc(-c3ccc(Cl)cc3)[se]2)cc1
Ki (Carbonic anhydrase 9): 8.4 nM

NS(=O)(=O)c1ccc(-c2ncc(-c3ccc([N+](=O)[O-])cc3)[se]2)cc1
viability at 10 µM (PC-3 [3]; PC-3, 48 h, read-out: Activity): 10% | Ki (Carbonic anhydrase 9): 8.2 nM | viability at 1 µM (MDA-MB-231 [5]): 73% | viability at 1 µM (PC-3 [7]): 60% | viability at 1 µM (PC-3 [10]): 32% | Activity (MDA-MB-231 [8]): >90%

NC(=[Se])c1ccc(S(N)(=O)=O)cc1
Ki (Carbonic anhydrase 9): 7.6 nM

NS(=O)(=O)c1ccc(-c2ncc(CSc3ccccc3)[se]2)cc1
Ki (Carbonic anhydrase 9): 5.4 nM

COc1cccc(-c2cnc(-c3ccc(S(N)(=O)=O)cc3)[se]2)c1
Ki (Carbonic anhydrase 9): 56.3 nM

Cc1cnc(-c2ccc(S(N)(=O)=O)cc2)[se]1
Ki (Carbonic anhydrase 9): 6.9 nM

Cc1ccc([Te]Cc2cnc(-c3ccc(S(N)(=O)=O)cc3)[se]2)cc1
Ki (Carbonic anhydrase 9): 2.6 nM

COc1ccc([Te]Cc2cnc(-c3ccc(S(N)(=O)=O)cc3)[se]2)cc1
Ki (Carbonic anhydrase 9): 0.89 nM | viability at 1 µM (MDA-MB-231 [5]): 16% | viability at 1 µM (PC-3 [7]): 23%

NS(=O)(=O)c1ccc(-c2ncc(CCl)[se]2)cc1
Ki (Carbonic anhydrase 9): 2.8 nM

NS(=O)(=O)c1ccc(-c2ncc(-c3ccccc3)[se]2)cc1
Ki (Carbonic anhydrase 9): 6.5 nM

NS(=O)(=O)c1ccc(-c2ncc(C(=O)O)[se]2)cc1
Ki (Carbonic anhydrase 9): 9 nM

NS(=O)(=O)c1ccc(-c2ncc(C[Se]c3ccccc3)[se]2)cc1
Ki (Carbonic anhydrase 9): 9.1 nM
